Measurements published in PMC4762688 (Journal of nuclear medicine : official publication, Society …, 2015).
“Also recorded” adds a separate entry of the source. Bridge positions count the residues as written; N and C are the ends. Square brackets hold non-standard residues; d marks the D form. Peptide text beside a SMILES is read from it. * marks the point of attachment. X1 = O=C(O)CN1CCN(CC(=O)O)CCN(C(CCC(=O)NCc2ccc(CN*)cc2)C(=O)O)CC1; NODAGA = O=C(O)CN1CCN(CC(=O)O)CCN(C(CCC(=O)*)C(=O)O)CC1; Tyr(3-Cl) = N[C@@H](Cc1ccc(O)c(Cl)c1)C(=O)O; X3 = NCCN(CCN)CCC(=O)NCc1ccc(CN*)cc1; Hyp = O=C(O)[C@@H]1C[C@@H](O)CN1; X2 = NCCN(CCN)CCC(=O)*

Assays:
[1] = test system: 125I-labeled thrombus; assay: Triple-isotope SPECT/PET/CT imaging with 125I-labeled thrombus; assay type: in vivo, rat; details: ferric chloride model
[2] = test system: thrombus (mural carotid artery thrombosis); assay: PET / SPECT imaging in rat carotid crush injury model; assay type: in vivo
[3] = target: T1, immobilized fibrin (Homo sapiens, UniProt P02671+P02675+P02679); assay: Functional fibrin-binding assay: blood plasma incubated with immobilized fibrin; details: blood samples collected after injection
T1 sequence (P02671 36-629 limits assumed): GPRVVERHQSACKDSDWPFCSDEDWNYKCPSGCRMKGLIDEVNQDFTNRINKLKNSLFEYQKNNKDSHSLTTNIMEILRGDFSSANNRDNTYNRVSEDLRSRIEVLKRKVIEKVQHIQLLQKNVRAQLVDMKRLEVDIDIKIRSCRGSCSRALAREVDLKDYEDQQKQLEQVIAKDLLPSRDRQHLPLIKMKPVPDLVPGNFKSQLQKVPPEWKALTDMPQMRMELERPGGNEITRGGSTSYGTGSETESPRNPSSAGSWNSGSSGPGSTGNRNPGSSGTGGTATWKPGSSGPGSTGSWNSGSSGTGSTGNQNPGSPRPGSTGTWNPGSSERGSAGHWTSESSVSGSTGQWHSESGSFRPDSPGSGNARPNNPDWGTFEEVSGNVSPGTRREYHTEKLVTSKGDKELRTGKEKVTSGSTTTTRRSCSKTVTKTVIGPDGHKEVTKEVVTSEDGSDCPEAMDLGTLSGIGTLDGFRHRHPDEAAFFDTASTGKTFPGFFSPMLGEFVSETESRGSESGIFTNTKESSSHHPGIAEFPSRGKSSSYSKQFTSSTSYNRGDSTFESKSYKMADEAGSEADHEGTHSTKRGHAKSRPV
T1 sequence (P02675 45-491 limits assumed): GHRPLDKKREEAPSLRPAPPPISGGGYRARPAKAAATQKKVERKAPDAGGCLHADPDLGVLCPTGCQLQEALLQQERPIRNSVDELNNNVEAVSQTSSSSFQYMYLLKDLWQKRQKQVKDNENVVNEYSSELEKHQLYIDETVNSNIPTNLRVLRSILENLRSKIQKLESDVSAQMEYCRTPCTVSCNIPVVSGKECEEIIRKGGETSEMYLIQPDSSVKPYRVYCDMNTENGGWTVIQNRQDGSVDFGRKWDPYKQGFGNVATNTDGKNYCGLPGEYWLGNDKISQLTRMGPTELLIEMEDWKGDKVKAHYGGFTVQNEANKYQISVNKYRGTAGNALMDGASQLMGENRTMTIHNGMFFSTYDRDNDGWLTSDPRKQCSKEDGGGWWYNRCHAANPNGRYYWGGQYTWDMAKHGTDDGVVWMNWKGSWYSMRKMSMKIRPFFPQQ
T1 sequence (P02679 27-437 isoform P02679-2 limits assumed): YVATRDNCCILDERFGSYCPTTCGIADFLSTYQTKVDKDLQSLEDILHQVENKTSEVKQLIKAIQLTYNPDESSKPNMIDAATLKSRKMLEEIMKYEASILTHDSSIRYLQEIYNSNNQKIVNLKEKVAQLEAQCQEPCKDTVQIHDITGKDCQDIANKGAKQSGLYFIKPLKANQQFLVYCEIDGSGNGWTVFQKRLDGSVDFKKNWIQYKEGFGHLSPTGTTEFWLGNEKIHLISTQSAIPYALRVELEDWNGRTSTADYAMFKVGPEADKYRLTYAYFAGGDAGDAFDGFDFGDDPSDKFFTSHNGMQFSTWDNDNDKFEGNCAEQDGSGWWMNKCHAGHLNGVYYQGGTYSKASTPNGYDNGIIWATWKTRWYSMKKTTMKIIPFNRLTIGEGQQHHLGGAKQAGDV

[4] = target: soluble fibrin fragment DD(E) (Homo sapiens, UniProt P02671+P02675+P02679, DEL433-453); assay type: binding; details: DD(E) assay
[5] = test system: thrombus (mural carotid artery thrombosis); assay: Ex vivo biodistribution; details: crush model, biodistribution at 120 minutes
[6] = Blood clearance / pharmacokinetics from serial blood samples

Row | displacement of the fluorescent probe [4] | Compound | localization to 125I-labeled thrombus (SPECT/PET) [1] | thrombus detection on PET / SPECT images [2] | fibrin binding of blood samples (plasma incubated with immobilized fibrin) [3] | thrombus uptake [5] | half-life ([6]; male, Sprague-Dawley, rat, in vivo, iv) [min] | clearance of radioactivity from blood ([6]; serial blood draws 0 to 120 minutes p.i.)
1 | no displacement | CC[C@H](C)[C@H](NC(=O)[C@H](Cc1c[nH]cn1)NC(=O)[C@@H]1CSSC[C@@H](NC(=O)[C@H](Cc2c[nH]cn2)NC(=O)[C@H](Cc2ccccc2)NC(=O)CCC(C(=O)O)N2CCN(CC(=O)O)CCN(CC(=O)O)CC2)C(=O)N2C[C@H](O)C[C@H]2C(=O)N[C@@H](Cc2ccc(O)c(Cl)c2)C(=O)N[C@@H](CC(=O)O)C(=O)N[C@@H](CC(C)C)C(=O)N1)C(=O)N[C@@H](CC(C)C)C(=O)NCc1ccc(CNC(=O)CCC(C(=O)O)N2CCN(CC(=O)O)CCN(CC(=O)O)CC2)cc1 (stereo partly drawn) [^64Cu-D-Cys-FBP8, metal not drawn] ({NODAGA}-FH[dC][Hyp][Tyr(3-Cl)]DLCHIL-X1; disulfide 3-8) | did not reveal significant uptake at the target site | no uptake in the thrombus | does not bind to fibrin; also recorded: significantly lower binding |  |  | 
2 |  | CC[C@H](C)[C@H](NC(=O)[C@H](Cc1c[nH]cn1)NC(=O)[C@@H]1CSSC[C@H](NC(=O)[C@H](Cc2c[nH]cn2)NC(=O)[C@H](Cc2ccccc2)NC(=O)CCN(CCN)CCN)C(=O)N2C[C@H](O)C[C@H]2C(=O)N[C@@H](Cc2ccc(O)c(Cl)c2)C(=O)N[C@@H](CC(=O)O)C(=O)N[C@@H](CC(C)C)C(=O)N1)C(=O)N[C@@H](CC(C)C)C(=O)NCc1ccc(CNC(=O)CCN(CCN)CCN)cc1 [^99mTc-FBP16, metal not drawn] (X2-FHC[Hyp][Tyr(3-Cl)]DLCHIL-X3; disulfide 3-8) |  | ineffective |  | low target uptake | 5.9 ± 16.2 | residual radioactivity persisting in the blood even after 120 minutes
